pIC50: −log10 of the molar value.
Tests used:
[1] = system: IL-22; experiment: TH17 cytokine inhibition as measured by ELISA (IL-22); format: cell-based; details: 120 h; human CD4+ T cells differentiated to TH17 over 5 days, supernatant ELISA, vs DMSO
Description: (§1) Peripheral blood mononuclear cells (PBMCs) were sourced from freshly prepared leukocyte enriched plasma (buffy coat) from healthy volunteers from which PBMCs were isolated by density gradient centrifugation using Ficoll-Paque™ PLUS (GE Healthcare). Naïve CD4+ T cells were isolated using the Naïve CD4+ T cell Isolation Kit II (Miltenyi Biotec) as per manufacturer's instructions. CD4+ T cells were plated at 5×10^4 cells/well in 96 well plates pre-coated with immobilized human (h)-αCD3 antibody (eBioscience) then differentiated to TH17 cells using h-αCD28, h-αIFN-γ, h-αIL-4, h-IL-6, h-IL-23, […], h-TGF-β1 (eBioscience) and maintained in a cell culture incubator at 37° C. with 5% CO2 in TexMACS Medium (Miltenyi Biotec) supplemented with 1% Penicillin/Streptomycin (Lonza) over 5 days.
(§2) Human CD4+ T cells were differentiated to TH17 cells as described in the presence or absence of various concentrations of compounds in a final concentration of 0.1% DMSO in TexMACS medium. Supernatants were collected and stored at −20° C. until they were to be assayed for IL-17A, IL-17F, IL-17AF, IL-21 and/or IL-22 levels as determined by Ready-Set-Go ELISA kits (eBioscience) as per manufacturer's instructions. Endpoint absorbance was read at 450 nm and 570 nm according to manufacturer's instructions (eBioscience) using a microplate reader (Perkin Elmer). The percentage of cytokine inhibition was calculated with reference to DMSO treated cells and the IC50s were determined by GraphPad Prism software and presented in the table below.

[2] = system: IL-17AF; experiment: TH17 cytokine inhibition as measured by ELISA (IL-17AF); format: cell-based; details: 120 h; human CD4+ T cells differentiated to TH17 over 5 days, supernatant ELISA, vs DMSO
Description: as §1, §2

[3] = system: FOXP3; experiment: Real-time qRT-PCR gene expression in TH17 cells (FOXP3); format: cell-based, human; design: key: A: No change in gene expression observed relative to DMSO treated TH17 cells; B: Decreased gene expression observed relative to DMSO treated TH17 cells; C: Increased gene expression observed relative to DMSO treated TH17 cells; details: mRNA
Description: as §1
(§3) RNA was isolated from TH17 cells and cDNA was synthesized using the Verso cDNA kit (Thermo Scientific) as per manufacturer's instructions. IL-17A, IL-17F, IL-21, IL-22, G-CSF, IL-23R and FOXP3 gene expression were determined for compound treated and untreated TH17 cell samples using Solaris qPCR Gene expression assays (Thermo Scientific) with an iCycler iQ Real-Time PCR Detection System (Bio-Rad). Individual gene expression was normalized to a panel of six reference genes (ACTB, TBP, HPRT1, PGK1, TFRC and PPIA) (Thermo Scientific) and analyzed by REST 2009 (Qiagen) in accordance to MIQE guidelines (Bustin, et al. (2009) Clin. Chem. 55, 611-622), which is hereby incorporated by reference in its entirety). The effects of compounds on TH17 cytokine mRNA levels are presented as fold change in gene expression of compound treated TH17 cells relative to DMSO treated cells in the table below.

[4] = system: TH17 cells; experiment: TH17 cellular proliferation (Prestoblue); format: cell-based, human; details: 3 μM compound, after 5 day TH17 differentiation, relative to DMSO treated cells
Description: as §1
Cellular proliferation was assessed in the presence or absence of 3 μM compound using Prestoblue® Cell Viability Reagent (Life Technologies) as per manufacturer's instructions using absorbance as the output measured by a microplate reader (Perkin Elmer) after 30 minutes of incubation of cells and reagent. A standard curve developed by plotting varying cell numbers versus absorbance was used to assess differences in cellular proliferation between compound treated or untreated cells after the 5 day TH17 differentiation period.

[5] = system: IL-17A; experiment: Real-time qRT-PCR gene expression in TH17 cells (IL-17A); format: cell-based, human; design: key: A: No change in gene expression observed relative to DMSO treated TH17 cells; B: Decreased gene expression observed relative to DMSO treated TH17 cells; C: Increased gene expression observed relative to DMSO treated TH17 cells; details: mRNA
Description: as §1, §3

[6] = system: IL-22; experiment: Real-time qRT-PCR gene expression in TH17 cells (IL-22); format: cell-based, human; design: key: A: No change in gene expression observed relative to DMSO treated TH17 cells; B: Decreased gene expression observed relative to DMSO treated TH17 cells; C: Increased gene expression observed relative to DMSO treated TH17 cells; details: mRNA
Description: as §1, §3

[7] = system: IL-17F; experiment: Real-time qRT-PCR gene expression in TH17 cells (IL-17F); format: cell-based, human; design: key: A: No change in gene expression observed relative to DMSO treated TH17 cells; B: Decreased gene expression observed relative to DMSO treated TH17 cells; C: Increased gene expression observed relative to DMSO treated TH17 cells; details: mRNA
Description: as §1, §3

[8] = system: IL-21; experiment: Real-time qRT-PCR gene expression in TH17 cells (IL-21); format: cell-based, human; design: key: A: No change in gene expression observed relative to DMSO treated TH17 cells; B: Decreased gene expression observed relative to DMSO treated TH17 cells; C: Increased gene expression observed relative to DMSO treated TH17 cells; details: mRNA
Description: as §1, §3

[9] = TH17 cell viability (Prestoblue); format: cell-based; design: concentration or dose not given beside the values; details: human; percentage of DMSO treated cells; read-out: % viability of compound treated TH17 cells
Description: as §1
Cells were assayed for viability in the presence or absence of compound using Prestoblue® Cell Viability Reagent (Life Technologies) as per manufacturer's instructions after 30 minutes incubation of TH17 cells with reagent. Absorbance was measured at 570 nm and 600 nm using a microplate reader (Perkin Elmer) and data were analyzed as per manufacturer's instructions. Cell viability was expressed as a percentage of DMSO treated cells.

[10] = system: IL-17F; experiment: TH17 cytokine inhibition as measured by ELISA (IL-17F); format: cell-based; details: 120 h; human CD4+ T cells differentiated to TH17 over 5 days, supernatant ELISA, vs DMSO
Description: as §1, §2

[11] = system: IL-23R; experiment: Real-time qRT-PCR gene expression in TH17 cells (IL-23R); format: cell-based, human; design: key: A: No change in gene expression observed relative to DMSO treated TH17 cells; B: Decreased gene expression observed relative to DMSO treated TH17 cells; C: Increased gene expression observed relative to DMSO treated TH17 cells; details: mRNA
Description: as §1, §3

[12] = system: IL-17A; experiment: TH17 cytokine inhibition as measured by ELISA (IL-17A); format: cell-based; details: 120 h; human CD4+ T cells differentiated to TH17 over 5 days, supernatant ELISA, vs DMSO
Description: as §1, §2

[13] = target: human RORγ LBD (Homo sapiens (Human), UniProt P51449); experiment: RORγ LBD binding (Human RORγ Assay System, INDIGO Biosciences)
Description: Compound binding to the human RORγ LBD was assessed using the Human RORγ Assay System (INDIGO Biosciences Inc.) as per manufacturer's instructions.

Chain of human RORγ LBD (P51449 269-508): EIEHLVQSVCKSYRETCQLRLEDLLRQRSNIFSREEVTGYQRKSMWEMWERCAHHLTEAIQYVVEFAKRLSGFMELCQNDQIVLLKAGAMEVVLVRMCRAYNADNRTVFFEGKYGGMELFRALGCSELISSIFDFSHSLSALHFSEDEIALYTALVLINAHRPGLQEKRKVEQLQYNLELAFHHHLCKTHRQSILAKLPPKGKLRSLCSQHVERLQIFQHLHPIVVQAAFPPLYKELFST

Row | pIC50 [1] | pIC50 [2] | pIC50 [10] | pIC50 [12] | pIC50 [13] | SMILES | Change in gene expression of compound treated TH17 cells relative to DMSO treated cells, FOXP3 [3] | % change in TH17 cell number [4] | Change in gene expression of compound treated TH17 cells relative to DMSO treated cells, IL-17A [5] | Change in gene expression of compound treated TH17 cells relative to DMSO treated cells, IL-22 [6] | Change in gene expression of compound treated TH17 cells relative to DMSO treated cells, IL-17F [7] | Change in gene expression of compound treated TH17 cells relative to DMSO treated cells, IL-21 [8] | viability [9] | Change in gene expression of compound treated TH17 cells relative to DMSO treated cells, IL-23R [11]
1 | > 5.00 | > 5.00 | > 5.00 | > 5.00 |  | NC(=O)c1ccc2c(c1)CCCN2Cc1ccc(C(O)(C(F)(F)F)C(F)(F)F)cc1 [Example 2, 1-(4-(1,1,1,3,3,3-hexafluoro-2-hydroxypropan-2-yl)benzyl)-1,2,3,4-tetrahydroquinoline-6-carboxamide] | A | B (≦50% decrease in cell proliferation relative to DMSO treated TH17 cells) | A | A | A | A | > 80% | A
2 |  | < 5.00 | < 5.00 | < 5.00 |  | NC(=O)c1ccc2c(c1)CCC(=O)N2Cc1ccc(C(O)(C(F)(F)F)C(F)(F)F)cc1 [Example 5, 1-(4-(1,1,1,3,3,3-hexafluoro-2-hydroxypropan-2-yl)benzyl)-2-oxo-1,2,3,4-tetrahydroquinoline-6-carboxamide] |  |  |  |  |  |  | > 80% | 
3 |  | > 5.00 | < 5.00 | < 5.00 | < 5.00 | CNC(=O)c1ccc2c(c1)CCC(=O)N2Cc1ccc(C(O)(C(F)(F)F)C(F)(F)F)cc1 [Example 6, 1-(4-(1,1,1,3,3,3-hexafluoro-2-hydroxypropan-2-yl)benzyl)-N-methyl-2-oxo-1,2,3,4-tetrahydroquinoline-6-carboxamide] |  |  |  |  |  |  | > 80% | 
4 |  | < 5.00 | > 5.00 | > 5.00 |  | CN(C)C(=O)c1ccc2c(c1)CCC(=O)N2Cc1ccc(C(O)(C(F)(F)F)C(F)(F)F)cc1 [Example 7, 1-(4-(1,1,1,3,3,3-hexafluoro-2-hydroxypropan-2-yl)benzyl)-N,N-dimethyl-2-oxo-1,2,3,4-tetrahydroquinoline-6-carboxamide] |  |  |  |  |  |  | > 80% | 
5 | < 5.00 |  | > 5.00 | > 5.00 |  | NC(=O)c1ccc2c(ccc(=O)n2Cc2ccc(C(O)(C(F)(F)F)C(F)(F)F)cc2)c1 [Example 8, 1-(4-(1,1,1,3,3,3-hexafluoro-2-hydroxypropan-2-yl)benzyl)-2-oxo-1,2-dihydroquinoline-6-carboxamide] | A | B (≦50% decrease in cell proliferation relative to DMSO treated TH17 cells) | A | C | B | A | > 80% | A
6 | < 5.00 |  | < 5.00 | < 5.00 |  | CNC(=O)c1ccc2c(ccc(=O)n2Cc2ccc(C(O)(C(F)(F)F)C(F)(F)F)cc2)c1 [Example 9, 1-(4-(1,1,1,3,3,3-hexafluoro-2-hydroxypropan-2-yl)benzyl)-N-methyl-2-oxo-1,2-dihydroquinoline-6-carboxamide] | A | B (≦50% decrease in cell proliferation relative to DMSO treated TH17 cells) | B | B | B | B | > 80% | A
7 | < 5.00 |  | < 5.00 | > 5.00 |  | CN(C)C(=O)c1ccc2c(ccc(=O)n2Cc2ccc(C(O)(C(F)(F)F)C(F)(F)F)cc2)c1 [Example 10, 1-(4-(1,1,1,3,3,3-hexafluoro-2-hydroxypropan-2-yl)benzyl)-N,N-dimethyl-2-oxo-1,2-dihydroquinoline-6-carboxamide] | A | B (≦50% decrease in cell proliferation relative to DMSO treated TH17 cells) | A | A | A | A | > 80% | A
8 | > 5.00 |  | > 5.00 | > 5.00 |  | NC(=O)c1ccc2c(c1)CCN2Cc1ccc(C(O)(C(F)(F)F)C(F)(F)F)cc1 [Example 11, 1-(4-(1,1,1,3,3,3-hexafluoro-2-hydroxypropan-2-yl)benzyl)indoline-5-carboxamide] |  | B (≦50% decrease in cell proliferation relative to DMSO treated TH17 cells) |  |  |  |  | > 80% | 
9 | < 5.00 |  | > 5.00 | > 5.00 |  | CNC(=O)c1ccc2c(c1)CCN2Cc1ccc(C(O)(C(F)(F)F)C(F)(F)F)cc1 [Example 12, 1-(4-(1,1,1,3,3,3-hexafluoro-2-hydroxypropan-2-yl)benzyl)-N-methylindoline-5-carboxamide] |  | B (≦50% decrease in cell proliferation relative to DMSO treated TH17 cells) |  |  |  |  | > 80% | 
10 | > 5.00 |  | > 5.00 | > 5.00 |  | CN(C)C(=O)c1ccc2c(c1)CCN2Cc1ccc(C(O)(C(F)(F)F)C(F)(F)F)cc1 [Example 13, 1-(4-(1,1,1,3,3,3-hexafluoro-2-hydroxypropan-2-yl)benzyl)-N,N-dimethylindoline-5-carboxamide] |  | B (≦50% decrease in cell proliferation relative to DMSO treated TH17 cells) |  |  |  |  | > 80% | 
